Values quoted from earlier work as cited in patent publication US9775839B2, “2-pyrazine carboxamides as spleen tyrosine kinase inhibitors” (Merck Sharp & Dohme Corp., priority 2014, dated 2017).

Legend:
[1] = test system: PGD2; details: dosed intranasally, allergic rhinitis, phase I/II study
[2] = allergic rhinitis, phase II clinical trial

SMILES: Oc1cccc(Nc2ncc(F)c(Nc3cccc(O)c3)n2)c1 [Example R112]
- change in PGD2 [1]: statistically significant decrease
- clinical safety [1]: safe across a range of indicators
- efficacy versus placebo [2]: lack of efficacy
